Measured values from ChEMBL document CHEMBL1151368, “Some new decussine-type alkaloids from Strychnos decussata, Strychnos dale and Strychnos elaecocarpa” (1981).
The source made the active and inactive calls. The calls are words filed in the database; no cut-off is given here.

What was measured:
Assay type in all cases: functional
Rattus norvegicus [1] = species: Rattus norvegicus; experiment: Muscle relaxant activity in rat assessed as reduction in electrically stimulated phrenic nerve-induced diaphragm contraction at 50 ug/ml
Rattus norvegicus [2] = species: Rattus norvegicus; experiment: Muscle relaxant activity in rat assessed as reduction in electrically stimulated phrenic nerve-induced diaphragm contraction at 5.1 ug/ml; design: scale not given: the % may be the effect or the level left
Rattus norvegicus [3] = species: Rattus norvegicus; experiment: Muscle relaxant activity in rat assessed as reduction in electrically stimulated phrenic nerve-induced diaphragm contraction at 5.1 ug/ml in presence of synstigmine

| SMILES | Activity (Rattus norvegicus [1]) | Activity (Rattus norvegicus [2]) | Activity (Rattus norvegicus [3]) |
| --- | --- | --- | --- |
| C[C@@H]1c2cnccc2CC2c3c(c4ccccc4n31)CCN2C (stereo partly drawn) | inactive |  |  |
| C[C@@H]1c2cnccc2C=C2c3c(c4ccccc4n31)CCN2C [DECUSSINE] |  | 50% | Active |
